Measured values as given in PMC11148078, “Potent activity of polymyxin B is associated with long-lived super-stoichiometric accumulation mediated by weak-affinity binding to lipid A” (Nature Communications, 2024).
Bridge positions count the residues as written; N and C are the ends. Square brackets hold non-standard residues; d marks the D form. Peptide text beside a SMILES is read from it. * marks the point of attachment. X1 = CC[C@H](C)CCCCC(=O)*; Dab = NCC[C@H](N)C(=O)O

Experiments:
[1] = test system: E. coli cells, OMVs, and LPS; test: SPR apparent association rate averaged over cells, OMVs and LPS; type: binding; conditions: averaged for cells
Procedure: OMV-coated and whole cell-coated C1 chips were prepared as already described with the following changes and LPS-coated surfaces were prepared identically but with rough-LPS extracted from E. coli F583 (Rd mutant, Sigma #L6893). For LPS, cloudy colloid suspension (above its CMC, ~1 mg/ml) contains LPS micelles that were injected and captured. For all formats, sample buffer and running buffer were composed of Dulbecco’s phosphate-buffered salt solution containing 0.0005% tween-80 (Sigma), 1 mM calcium and 0.5 mM magnesium (Fisher Scientific), pH 7.4. Analysis and compartment temperatures were both set to 37 °C. Freshly prepared OMV-coated or whole cell-coated sensing surfaces were employed for each injection of polymyxin B while LPS-coated sensing surfaces could be fully regenerated by injecting 50 mM CHAPS. Reversibly bound PMBN could be reinjected over all surfaces without requiring regeneration as it fully dissociated within a few minutes.
Fresh sensing surfaces coated with whole cells and OMVs were prepared and 325 nM polymyxin B was injected at […] for 120 s over both. This injection was repeated after a long delay, and without regeneration, in order to allow free sites to become available thereby resulting in two polymyxin B binding curves for each sensing surface (Fig. 3E, F). […]

wt-OMVs = test: Three-state model fit to SPR titration, wt-OMVs; type: binding, E. coli
Description: To estimate binding constants, the three-state model was fit to binding curve titrations (Fig. 5A, B, and Table 2). Briefly, the SPR response curves of polymyxin B binding wt-OMVs (Fig. 5A) or resistant OMVs (Fig. 5B) were globally fit to Eqn. (1) by non-linear regression coupled to numerical integration of the associated ordinary differential equations (see Supplementary Information Section 2A), which define the time-dependent concentrations of each species.1 Response(t)=([PMBL]t+[nPMBL]t+2*[tPMB]t+m.[cPMB]t).MW.G.
Section 2A - Formulation of three-state model for fitting SPR data
The three-state model (Fig. 4) was formulated as a set of coupled ordinary differential equations (ODEs), with eight binding rate constants (k1-8) governing the rates of interchange of each species.
Forward rate constants k7 and k9 were eliminated from the equation set as formation of transient species tPMB and LL are irreversible.
Time at Injection 1 start = 0 s
Sample contact time = 30 s
Dissociation time interval = 35 s
Mass transport rate = kt = 46.5 1/s
Initial Species Concentrations
Coupled ODEs of Three-State Model d[L]/dt = -(k1.[PMB].[L] - k2.[PMBL])+2*k10.[LL] (S8) d[PMB]/dt = -(k1.[PMB].[L] - k2.[PMBL]) + kt’.([PMBi](t) –[PMB]) (S9) d[PMBL]/dt = (k1.[PMB]*[L] - k2.[PMBL])-(k3.[PMBL].[n] - k4.[nPMBL] ) (S10) d[n]/dt = -(k3.[PMBL].[n] - k4.[nPMBL] ) (S11) d[nPMBL]/dt = (k3.[PMBL].[n] - k4.[nPMBL])-2.(k5.[nPMBL].[nPMBL] - k6.[tPMB].[LL] ) (S12) d[tPMB]/dt = (k5.[nPMBL].[nPMBL] - k6.[tPMB].[LL] ) – k8.[tPMB] (S13) d[cPMB]/dt = 2*k8.[tPMB] (S14) d[LL]/dt = (k5.[nPMBL].[nPMBL] – k6.[tPMB].[LL]) – k10.[LL] (S15)
The initial concentrations of each species were as follows
[PMB]t=0 = [PMBL]t=0 = [nPMBL]t=0 = [tPMB]t=0 = [LL]t=0 = [cPMB]t=0 = 0 [L]t=0 = [n]t=0 = 1.56 x 10-4 (units, M) kt’ (units, m/s) was already defined in SI Section 1A. [PMBi](t) is the injected concentration profile and [PMB]t is the concentration profile at the sensing surface. [PMBi](t) follows a serial-doubling concentration of injected analyte, with a concentration profile defined by a serial step function, where each injection step represents a discrete concentration followed by a dissociation step without injected analyte and this is repeated for each concentration in the SCK dosing series.
Kintek Explorer V9.5 was used to build and fit the three-state model. This program employs its own numerical integrator9, which reports the change in concentration of each species over time.
The SPR responses for concentrations of each accumulating PMB-species estimated from Eqn (8 - 15) are summed over time in Eqn (1), repeated here.
Response(t) = ([PMBL]t+[nPMBL]t+2*[tPMB]t+m.[cPMB]t).MW.G. Eqn (1)
The concentration of [tPMB]t is multiplied by two to account for its additional mass, being composed of two PMB molecules. Insertion of PMB into the acyl-LPS matrix to form cPMB is associated with changes in the phase state of LPS10 and is also likely associated with redistribution of mass towards the sensing surface11. These changes will manifest as an increase in sensitivity of the SPR binding response when clusters are formed and are included in Eqn (1) […]
using a sensitivity coefficient (m). MW is the molecular weight of the injected analyte, in this case PMB (1203.48 Da). The constant, G, is a unit conversion factor that converts protein concentration (g/L) to response (RU) and is typically 100 (units, RU.L/g). […]

Q: For `CC[C@H](C)CCCCC(=O)N[C@@H](CCN)C(=O)N[C@H](C(=O)N[C@@H](CCN)C(=O)N[C@H]1CCNC(=O)[C@H]([C@@H](C)O)NC(=O)[C@H](CCN)NC(=O)[C@H](CCN)NC(=O)[C@H](CC(C)C)NC(=O)[C@@H](Cc2ccccc2)NC(=O)[C@H](CCN)NC1=O)[C@@H](C)O` [Polymyxin B] (X1-[Dab]T[Dab][Dab][Dab][dF]L[Dab][Dab]T; lactam 4-C (inferred); N-terminus assumed), which “ka, apparent association rate constant” value [1] is on record?
A: The value was 2.1 (±0.78) × 10^5 M^−1 s^−1.

Q: And the k5 (wt-OMVs; dimerization of nPMBL, global fit, max 625 nM)?
A: The k5 was 20.75 M⁻¹ s⁻¹.

Q: And the k3 (wt-OMVs; membrane insertion / nPMBL formation, global fit, max 625 nM)?
A: Its k3 is 2233 M⁻¹ s⁻¹.

Q: What about the k4 (wt-OMVs; nPMBL dissociation, global fit, max 625 nM) of the same compound?
A: The k4 was 0.00488 s⁻¹.

Q: What about the “relative fraction of transition state” value (wt-OMVs; peer review file) of the same compound?
A: The value was < 0.1%.

Q: What about the “residence time = 1/k4” value (wt-OMVs; stability of nucleates (nPMBL)) of the same compound?
A: Its value is 205 s.
